These results are taken from patent US3963756A, “Derivatives of 6-methyl-2H-pyran-2,4(3H)-dione” (Zaidan Hojin Biseibutsu Kagaku Kenkyu Kai, priority 1972, dated 1976).

pIC50: −log10 of the molar value.

The LD50 is the dose at which mortality reaches 50%. A high value points to a less toxic substance. As a reminder, the pIC50 is the negative decadic logarithm of the IC50, by convention in mol/L. A high value points to a small IC50. One may read the inhibition as how much of the control response was suppressed. Low values mean a response near the control, high ones a response far below the control.

A short description of series [1]: Toxicity in mice (LD50; 30-day daily dosing). It counts as in vivo. The conditions noted are these: mouse, in vivo, ip; mice, intraperitoneal injection.
For a further series, the target named is T1, Dopamine β-Hydroxylase (Bos taurus, UniProt P15101).
T1 sequence (P15101 1-610): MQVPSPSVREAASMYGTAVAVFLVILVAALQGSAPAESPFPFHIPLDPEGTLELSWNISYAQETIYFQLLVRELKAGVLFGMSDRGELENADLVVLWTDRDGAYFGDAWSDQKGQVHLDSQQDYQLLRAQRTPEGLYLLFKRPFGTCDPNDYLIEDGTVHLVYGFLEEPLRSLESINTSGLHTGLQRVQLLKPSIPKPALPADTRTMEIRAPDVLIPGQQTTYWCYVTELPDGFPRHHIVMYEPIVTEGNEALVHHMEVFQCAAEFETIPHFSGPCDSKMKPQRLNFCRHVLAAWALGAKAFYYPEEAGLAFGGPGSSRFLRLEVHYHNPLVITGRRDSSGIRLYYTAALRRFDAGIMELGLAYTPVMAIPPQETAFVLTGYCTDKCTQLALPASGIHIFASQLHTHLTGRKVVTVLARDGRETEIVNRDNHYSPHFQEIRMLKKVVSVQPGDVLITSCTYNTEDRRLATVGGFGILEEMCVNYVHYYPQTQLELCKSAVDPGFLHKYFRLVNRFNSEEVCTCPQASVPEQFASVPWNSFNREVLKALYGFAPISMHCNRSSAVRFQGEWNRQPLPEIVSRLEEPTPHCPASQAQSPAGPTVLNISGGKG
As to the kind of experiment: Inhibition of dopamine β-hydroxylase (DH). Format: biochemical. The settings on record: for inhibition at 200 µg/mL: 200 mcg/cc. The text has this:
(§1) The new compounds of the present invention have been examined for their biological activities, and their inhibition to tyrosine hydroxylase and dopamine β-hydroxylase are summarized below in Table 2. The details of the test methods used and the close relationship and reliable correlation of biological activities between in vitro and in vivo test results are well documented in the literature, e.g. J. Antibiot. 23: 514 (1970); Biochem. Pharmacol., 19: 35 (1970); and J. Am. Chem. Soc. 93: 1285 (1971). […] The effects of this compound on tyrosine hydroxylase and dopamine β-hydroxylase were also tested by the methods described in the Journal of Antibiotics 23:514 (1970) and Biochem. Pharmacol. 19:35 (1970), respectively.
(§2) The chemical structure of the products [I], solvent for hydrogenation and solvent for recrystallization are summarised in Table 1, and the yields of the products [I] are also shown in Table 1 together with their melting points, elemental analysis data, Inhibition (%) of tyrosine hydroxylase (TH) and Inhibition (%) to dopamine β-hydroxylase (DH) at different concentrations of the products [I] of 100 mcg/cc and 200 mcg/cc.

The target of another series is T2, Tyrosine Hydroxylase (Bos taurus, UniProt P17289).
T2 sequence (P17289 1-491): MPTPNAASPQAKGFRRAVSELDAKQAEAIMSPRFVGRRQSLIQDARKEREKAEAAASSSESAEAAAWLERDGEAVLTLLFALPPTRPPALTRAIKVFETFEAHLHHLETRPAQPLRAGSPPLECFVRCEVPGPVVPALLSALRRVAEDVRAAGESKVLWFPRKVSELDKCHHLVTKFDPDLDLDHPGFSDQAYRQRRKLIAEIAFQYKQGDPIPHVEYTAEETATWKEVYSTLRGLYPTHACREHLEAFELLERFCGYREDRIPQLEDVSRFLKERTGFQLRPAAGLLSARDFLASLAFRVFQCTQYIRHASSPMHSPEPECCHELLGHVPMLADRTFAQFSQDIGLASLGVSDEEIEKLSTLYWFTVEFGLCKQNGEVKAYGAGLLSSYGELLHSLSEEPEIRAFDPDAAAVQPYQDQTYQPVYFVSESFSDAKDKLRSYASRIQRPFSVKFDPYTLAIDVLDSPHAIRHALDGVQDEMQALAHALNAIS
The experiment in a line: Inhibition of tyrosine hydroxylase (TH). Format: biochemical. The conditions noted are these: for inhibition at 200 µg/mL: 200 mcg/cc.
Text: as §1, §2

Series [2] deals with genetically hypertensive rats. The experiment in a line: Blood pressure in genetically hypertensive rats. Format: in vivo. The conditions noted are these: genetically hypertensive rats (Okamoto). The text has this:
(§3) Hydroxylation of tyrosine is the rate-limiting step of norepinephrine biosynthesis. Therefore, inhibition of tyrosine hydroxylase results in inhibition of norepinephrine synthesis in vivo which results in lowering the blood pressure. […] Okamoto, of the Medical School, University of Kyoto, Japan, and described in "Journal of Antibiotics" 23: 514 (1970).

Another series relates to mice. The experiment in a line: Toxicity in mice (LD50; 30-day daily dosing). Format: in vivo. The settings on record: 160, 40 and 10 mg/kg orally or intraperitoneally daily to mice for 30 days.
Another series relates to mice and rats. As to the kind of experiment: Sleeping / sedative effect in mice and rats. It counts as in vivo. The conditions noted are these: injection of 200 mg/kg to mice and rats.
Text: as §3

Another series has as its system rat. As to the kind of experiment: Blood pressure in rats. Format: in vivo. The settings on record: for systolic blood pressure lowered to: 6.25 mg/kg i.p. The procedure:
as §3
When 6.25 mg/kg was intraperitoneally injected to a rat of 185 mm. systolic blood pressure and another rat of 188 mm., the blood pressure was then lowered to 115-145 mm. and 138-166 mm. respectively during 1-22 hours after the injection. When […]. was intraperitoneally injected to a rat of 190 mm. systolic blood pressure, the pressure was reduced to 146-162 mm. during 1-22 hours after the injection. […] It caused 20-30% reduction of blood pressure which continued for about 5 days after the last oral administration.

A short description of series [3]: Lowering of blood pressure (general statements). The conditions noted are these: in vivo. Further details: species or system mammals.
A further series deals with bacteria and fungi. The conditions noted are these: Chemical Abstracts 50, 980e; cited from earlier work.
The mark [4] stands for this setting: oral daily for three days, 3.1, 6.25, 12.5, 25 mg/kg.

With `COc1ccccc1CCC(=O)C1C(=O)C=C(C)OC1=O` (centres unmarked) [3-(2-methoxyhydrocinnamoyl)-6-methyl-2H-pyran-2,4(3H)-dione] [listing 1 of 2 here], in series [1], the LD50 turned out to be 1200 mg/kg. On Dopamine β-Hydroxylase, this compound gave a pIC50 of 5.72.

With `COc1ccccc1CCC(=O)C1C(=O)C=C(C)OC1=O` (centres unmarked) [3-(2-methoxyhydrocinnamoyl)-6-methyl-2H-pyran-2,4(3H)-dione] [listing 2 of 2 here], the “inhibition % to tyrosine hydroxylase” value at Tyrosine Hydroxylase (12.5 mcg/cc) is 10%; at Tyrosine Hydroxylase (25 mcg/cc), 18%; against Tyrosine Hydroxylase (50 mcg/cc), 22%; on Tyrosine Hydroxylase (100 mcg/cc), 32%. For the same compound, the hypotensive effect result in series [2] is “even more markedly”. Besides, the usual toxic signs entry with mice is listed as “none of the usual toxic signs appeared except a decrease in the blood pressure”. For the same compound, the “sleeping and sedative effect” value with mice and rats was “did not cause sleeping and a sedative effect was not recognized”. The “duration of blood pressure reduction after the last oral administration” value with rat (setting [4]) is on record as “about 5 days”. In addition, in the series with rat (setting [4]), the “reduction of blood pressure” value is recorded as 20-30%. In the series on rat (setting [4]), the “reduction of blood pressure (in words)” value was “marked reduction of blood pressure”. Moreover, the “systolic blood pressure lowered to” value was 115-145 mm in the series on rat (rat of 185 mm systolic, during 1-22 hours after injection) and 138-166 mm in the series with rat (rat of 188 mm systolic, during 1-22 hours after injection). Besides, in the series on rat (rat of 190 mm systolic, 12.5 mm/kg (so in the source) i.p., during 1-22 hours after injection), the “systolic blood pressure reduced to” value is listed as 146-162 mm. Also, the “systolic and diastolic blood pressure” value in the series with rat (rats, daily injection or daily oral administration, 3.5 mg/kg) is “lowered both the systolic and the diastolic blood pressure”.

On Tyrosine Hydroxylase (100 mcg/cc), `COc1ccc(CCC(=O)C2C(=O)C=C(C)OC2=O)cc1OC` (centres unmarked) [3-(3,4-dimethoxyhydrocinnamoyl)-6-methyl-2H-pyran-2,4(3H)-dione, reference compound] returned an inhibition at 100 µg/mL of 61.3%. In addition, the values for the inhibition at 200 µg/mL on Tyrosine Hydroxylase and against Dopamine β-Hydroxylase were 72.5% and 32.5%, respectively. The “blood pressure reducing (hypotensive) activity, in words” value in [3] is “active in reducing blood pressure”.

Turning to `CC1=CC(=O)C(C(=O)CCc2ccccc2)C(=O)O1` (centres unmarked) [3-hydrocinnamoyl-6-methyl-2H-pyran-2,4(3H)-dione, reference compound], 100 µg/mL produced 49.7% inhibition at Tyrosine Hydroxylase (100 mcg/cc). Besides, the inhibition at 200 µg/mL at Tyrosine Hydroxylase turned out to be 52.8%. The “blood pressure reducing (hypotensive) activity, in words” value in series [3] is “active in reducing blood pressure”. On Dopamine β-Hydroxylase (100 mcg/cc), the “inhibition to DH” value stood at 100%. The “antibacterial and antifungal activity” value in the series with bacteria and fungi was “weak antibacterial and antifungal activity”.

`CC1=CC(=O)C(C(=O)CCc2c(O)ccc3ccccc23)C(=O)O1` (centres unmarked) [Example 37] showed an inhibition at 100 µg/mL on Tyrosine Hydroxylase (100 mcg/cc) of 41.8%. For the same compound, the inhibition at 200 µg/mL was 57.2% at Tyrosine Hydroxylase and 44.7% on Dopamine β-Hydroxylase.

`CC1=CC(=O)C(C(=O)CCc2cccs2)C(=O)O1` (centres unmarked) [Example 38] had an inhibition at 100 µg/mL at Tyrosine Hydroxylase (100 mcg/cc) of 52.3%. This compound came in with an inhibition at 200 µg/mL against Dopamine β-Hydroxylase of 30.3%.

`CC1=CC(=O)C(C(=O)CCc2ccc[nH]2)C(=O)O1` (centres unmarked) [Example 39]: at Tyrosine Hydroxylase (100 mcg/cc), the inhibition at 100 µg/mL is 30.9%. The same compound registered an inhibition at 200 µg/mL at Dopamine β-Hydroxylase of 25.1%.
